Test results as given in publication PMC4159345, “PF-4708671 Activates AMPK Independently of p70S6K1 Inhibition” (PLoS ONE, 2014).

Experiments:
[1] = molecular target: T1, mitochondrial respiratory chain Complex I; assay: spectrophotometric rotenone-sensitive NADH-CoQ reductase activity in isolated MEF mitochondria; assay type: biochemical, Mus musculus
T1 construct: gene Mtnd1; multi-subunit complex in mitochondria isolated from MEF

[2] = tested on: T1, mitochondrial respiratory chain Complex I; assay: spectrophotometric NADH-CoQ reductase activity in isolated MEF mitochondria, single concentration of […]; assay type: biochemical, Mus musculus

Row | SMILES | IC50 [1] [µM] | spectrophotometric NADH-CoQ reductase activity in isolated MEF mitochondria, sin [2] [mM]
1 | CCc1cncnc1N1CCN(Cc2nc3cc(C(F)(F)F)ccc3[nH]2)CC1 [PF-4708671] | 5.2 | –
2 | CN(C)C(=N)N=C(N)N [metformin] | – | 5
